Assay: xn = mol fraction of the nth substance listed
Settings: for mass density: 101 kPa, Liquid, Pycnometric method

CCCC(=O)O [butanoic acid] + O
Settings	mass density, 293.15 K [kg/m3]	mass density, 298.15 K [kg/m3]	mass density, 303.15 K [kg/m3]	mass density, 308.15 K [kg/m3]	surface tension liquid-gas, 293.15 K [mN/m]	surface tension liquid-gas, 298.15 K [mN/m]	surface tension liquid-gas, 303.15 K [mN/m]	surface tension liquid-gas, 308.15 K [mN/m]
x1 = 0.00475	–	–	–	–	50.5	50.01	49.13	48.56
x1 = 0.00655	–	–	–	–	45.88	45.32	44.7	44.05
x1 = 0.00903	–	–	–	–	41.59	40.95	40.38	39.72
x1 = 0.00998	–	–	–	–	40.32	39.69	39.11	38.47
x1 = 0.01274	–	–	–	–	37.41	36.84	36.24	35.68
x1 = 0.01432	–	–	–	–	36.11	35.6	34.99	34.5
x1 = 0.01655	1002.55	1000.29	998.03	995.86	34.6	34.16	33.58	33.16
x1 = 0.02141	1003.38	1001.03	998.67	996.41	–	–	–	–
x1 = 0.03346	1004.38	1001.93	999.47	997.11	29.28	28.91	28.59	28.45
x1 = 0.03727	1004.49	1001.94	999.38	996.93	–	–	–	–
x1 = 0.04522	1004.3	1001.66	999.01	996.46	28.48	28.33	28.14	27.95
x1 = 0.04995	1004.13	1001.39	998.64	995.99	–	–	–	–
x1 = 0.05825	1003.61	1000.77	997.92	995.18	28.46	28.38	28.1	27.87
x1 = 0.06959	1002.83	999.9	996.96	994.11	–	–	–	–
x1 = 0.07723	1002.34	999.13	995.79	992.85	–	–	–	–
x1 = 0.08723	–	–	–	–	28.61	28.3	27.92	27.72
x1 = 0.09004	1001.61	998.48	995.24	991.96	–	–	–	–
x1 = 0.09948	1001.12	997.91	994.7	991.51	28.52	28.24	27.88	27.67
x1 = 0.1147	–	–	–	–	28.39	28.17	27.84	27.63
x1 = 0.1172	1000.27	996.95	993.63	990.42	–	–	–	–
x1 = 0.131	999.59	996.11	992.63	989.31	–	–	–	–
x1 = 0.134	–	–	–	–	28.24	28.1	27.82	27.58
x1 = 0.1428	–	–	–	–	28.19	28.07	27.81	27.56
x1 = 0.1443	998.82	995.31	991.8	988.32	–	–	–	–
x1 = 0.1767	997.16	993.56	989.96	986.45	28.21	28.01	27.79	27.47

CCCCCC(=O)O [hexanoic acid] + O
Settings	mass density, 293.15 K [kg/m3]	mass density, 298.15 K [kg/m3]	mass density, 303.15 K [kg/m3]	mass density, 308.15 K [kg/m3]	surface tension liquid-gas, 293.15 K [mN/m]	surface tension liquid-gas, 298.15 K [mN/m]	surface tension liquid-gas, 303.15 K [mN/m]	surface tension liquid-gas, 308.15 K [mN/m]
x1 = 8e-05	–	–	–	–	63.26	62.69	62.67	62.16
x1 = 0.00015	998.24	997.08	995.67	994.07	–	–	–	–
x1 = 0.00016	–	–	–	–	56.6	56.02	56.09	56.02
x1 = 0.00023	–	–	–	–	52.29	51.8	51.81	51.94
x1 = 0.00032	–	–	–	–	48.25	47.98	47.93	48.06
x1 = 0.00037	–	–	–	–	46.55	46.17	45.98	46.29
x1 = 0.00043	998.28	997.12	995.68	994.07	–	–	–	–
x1 = 0.00046	–	–	–	–	44.03	43.54	43.22	43.67
x1 = 0.00051	–	–	–	–	42.83	42.62	42.44	42.6
x1 = 0.0006	998.31	997.14	995.72	994.09	–	–	–	–
x1 = 0.00062	–	–	–	–	40.57	40.6	40.57	40.45
x1 = 0.00069	–	–	–	–	39.19	39.02	38.98	38.89
x1 = 0.00077	–	–	–	–	37.72	37.36	37.36	37.2
x1 = 0.00084	–	–	–	–	36.64	36.28	36.21	36.07
x1 = 0.00091	–	–	–	–	35.66	35.23	35.04	34.96
x1 = 0.00106	998.36	997.18	995.77	994.1	–	–	–	–
x1 = 0.0011	–	–	–	–	33.79	33.17	32.82	32.46
x1 = 0.00115	–	–	–	–	33.55	32.94	32.57	32.11
x1 = 0.00143	998.42	997.22	995.77	994.12	–	–	–	–
x1 = 0.00148	998.43	997.23	995.79	994.12	–	–	–	–
x1 = 0.0018	998.47	997.25	995.81	994.13	–	–	–	–
x1 = 0.00195	998.49	997.28	995.82	994.15	–	–	–	–
x1 = 0.00205	998.5	997.29	995.83	994.14	–	–	–	–
x1 = 0.00222	998.52	997.29	995.83	994.16	–	–	–	–
x1 = 0.00228	998.54	997.31	995.84	994.16	–	–	–	–
x1 = 0.0025	998.56	997.33	995.86	994.18	–	–	–	–
x1 = 0.00271	998.58	997.35	995.88	994.19	–	–	–	–
x1 = 0.00289	998.62	997.37	995.89	994.19	–	–	–	–
x1 = 0.00305	998.63	997.4	995.91	994.21	–	–	–	–
x1 = 0.0035	998.69	997.43	995.94	994.23	–	–	–	–

Reference: the NIST ThermoML archive (doi:10.1021/je1002829)
